pKi: −log10 of the molar value.
How the values were obtained:
A. ureafaciens NA = conditions: after 22 hrs; cited from earlier work
C. perfrinqens NA = conditions: after 22 hrs; cited from earlier work
V cholera NA = V cholera NA (Vibrio cholerae serotype O1, UniProt P0C6E9); conditions: after 22 hrs; cited from earlier work
fowl plague viral NA = conditions: result in words; cited from earlier work
[1] = target: Influenza A (H1N1) neuraminidase (Influenza A virus, UniProt P03468); test: biochemical
[2] = target: Influenza A (H3N2) neuraminidase (Influenza A virus, UniProt P03482); test: biochemical
[3] = target: Influenza B neuraminidase (Influenza B virus, UniProt P03474); test: biochemical
Chain of Influenza B neuraminidase (P03474 whole entry, looked up): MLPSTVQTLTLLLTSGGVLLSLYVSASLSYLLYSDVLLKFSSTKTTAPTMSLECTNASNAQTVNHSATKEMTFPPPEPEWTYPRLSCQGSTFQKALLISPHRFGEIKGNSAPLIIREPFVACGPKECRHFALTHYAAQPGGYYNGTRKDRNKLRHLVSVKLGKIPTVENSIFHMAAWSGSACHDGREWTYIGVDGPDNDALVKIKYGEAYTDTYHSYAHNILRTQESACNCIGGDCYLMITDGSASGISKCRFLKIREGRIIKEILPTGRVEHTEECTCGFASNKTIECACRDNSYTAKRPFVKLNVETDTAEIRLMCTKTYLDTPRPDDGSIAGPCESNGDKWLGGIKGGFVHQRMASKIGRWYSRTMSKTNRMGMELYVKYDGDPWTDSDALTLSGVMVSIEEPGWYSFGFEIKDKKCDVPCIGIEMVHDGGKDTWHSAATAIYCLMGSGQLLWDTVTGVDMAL

Chain of Influenza A (H1N1) neuraminidase (P03468 whole entry, looked up): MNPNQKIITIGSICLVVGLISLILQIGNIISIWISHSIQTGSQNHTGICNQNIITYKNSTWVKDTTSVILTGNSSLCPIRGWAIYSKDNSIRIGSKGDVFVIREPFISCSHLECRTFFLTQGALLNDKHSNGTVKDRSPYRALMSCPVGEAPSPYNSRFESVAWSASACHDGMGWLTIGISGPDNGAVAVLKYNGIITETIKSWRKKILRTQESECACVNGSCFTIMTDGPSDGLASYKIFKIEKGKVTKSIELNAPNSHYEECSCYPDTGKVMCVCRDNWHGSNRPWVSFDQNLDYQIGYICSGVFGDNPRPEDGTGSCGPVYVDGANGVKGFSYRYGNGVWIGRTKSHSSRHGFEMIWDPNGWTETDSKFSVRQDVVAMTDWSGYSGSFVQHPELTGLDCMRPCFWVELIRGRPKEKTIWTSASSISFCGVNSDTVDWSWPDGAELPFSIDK
Chain of V cholera NA (P0C6E9 25-781 limits assumed): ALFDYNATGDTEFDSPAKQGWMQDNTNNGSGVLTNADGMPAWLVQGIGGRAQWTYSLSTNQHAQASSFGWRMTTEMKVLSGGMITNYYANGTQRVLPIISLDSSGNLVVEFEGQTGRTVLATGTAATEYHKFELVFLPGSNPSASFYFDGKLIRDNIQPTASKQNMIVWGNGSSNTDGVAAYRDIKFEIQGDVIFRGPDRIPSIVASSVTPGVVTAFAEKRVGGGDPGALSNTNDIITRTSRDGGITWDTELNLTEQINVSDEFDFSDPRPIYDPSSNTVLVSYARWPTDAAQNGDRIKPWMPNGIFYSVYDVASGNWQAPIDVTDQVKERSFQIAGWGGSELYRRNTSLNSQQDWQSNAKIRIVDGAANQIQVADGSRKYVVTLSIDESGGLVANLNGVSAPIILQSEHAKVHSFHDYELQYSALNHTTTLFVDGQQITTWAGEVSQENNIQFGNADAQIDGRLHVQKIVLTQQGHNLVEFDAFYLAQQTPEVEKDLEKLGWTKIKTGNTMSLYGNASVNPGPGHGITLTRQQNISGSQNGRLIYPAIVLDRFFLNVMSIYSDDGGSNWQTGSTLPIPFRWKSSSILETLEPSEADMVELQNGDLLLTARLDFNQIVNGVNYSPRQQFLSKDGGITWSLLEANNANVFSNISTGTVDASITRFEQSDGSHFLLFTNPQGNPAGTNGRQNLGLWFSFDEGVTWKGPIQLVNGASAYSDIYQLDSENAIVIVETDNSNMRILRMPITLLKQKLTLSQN
Chain of Influenza A (H3N2) neuraminidase (P03482 whole entry, looked up): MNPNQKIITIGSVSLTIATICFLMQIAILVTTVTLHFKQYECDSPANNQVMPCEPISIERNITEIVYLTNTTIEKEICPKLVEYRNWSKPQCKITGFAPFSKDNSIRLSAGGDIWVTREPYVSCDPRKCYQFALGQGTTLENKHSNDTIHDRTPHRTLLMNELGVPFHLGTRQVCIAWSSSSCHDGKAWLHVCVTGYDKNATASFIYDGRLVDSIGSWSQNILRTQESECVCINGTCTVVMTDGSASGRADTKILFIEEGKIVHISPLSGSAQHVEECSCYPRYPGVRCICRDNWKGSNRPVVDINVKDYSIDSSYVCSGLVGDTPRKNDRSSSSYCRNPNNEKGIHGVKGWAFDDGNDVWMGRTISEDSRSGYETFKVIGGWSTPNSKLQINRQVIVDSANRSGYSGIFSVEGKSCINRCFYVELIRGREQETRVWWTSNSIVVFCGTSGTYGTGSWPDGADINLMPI

For `CC(=O)NC1C(O)CC(OCc2ccccc2)(C(=O)O)OC1C(O)C(O)CO` [benzyl-alpha-glycosides of N-acetyl-4-epi-D-neuraminic acid], the substrate cleaved (A. ureafaciens NA) is given as 50%, the substrate cleaved (C. perfrinqens NA) is given as 100% and the substrate cleaved (V cholera NA) is given as 11%.

In the case of `CO[C@H]1CC(O)(C(=O)O)O[C@@H]([C@H](O)[C@H](O)CO)[C@@H]1NC(C)=O` (stereo partly drawn) [4-methoxy Neu5Ac, 4-methoxy-N-acetylneuraminic acid], the substrate quality (fowl plague viral NA) is given as “excellent substrate”.

In the case of `CC(=O)N[C@H]1[C@H]([C@H](O)[C@H](O)CO)OC(O)(C(=O)O)C[C@@H]1O` (stereo partly drawn) [Neu5Ac, N-acetylneuraminic acid], the pKi [1] was 3.20.

For `COC1(C(=O)O)CCC(NC(C)=O)C(C(O)C(O)CO)O1` (stereo not drawn) [methyl-alpha-glycoside of 4-deoxy Neu5Ac], the substrate quality (fowl plague viral NA) is given as “good substrate”.

Compound `CC(=O)N[C@@H]1CCC(O)(C(=O)O)O[C@H]1[C@H](O)[C@H](O)CO` (stereo partly drawn) [4-deoxy Neu5Ac, 4-deoxy-N-acetylneuraminic acid] has a pKi [1] of 3.00, a pKi [2] of 2.66 and a pKi [3] of 2.98.
